Test results taken from US20250109118A1, “HETEROCYCLIC COMPOUNDS AS SHP2 INHIBITORS, COMPOSITIONS COMPRISING THE HETEROCYCLIC COMPOUND, AND METHODS OF USE THEREOF” (JS INNOMED HOLDINGS LTD., priority 2021, published 2025).

Experiments:
SHP2 (PTPN11/SHP2-FL) = target: T1, SHP2 (PTPN11/SHP2-FL) (Homo sapiens, UniProt Q06124); assay: SHP2 biochemical assay (DiFMUP prompt fluorescence); settings: 0.5 nM SHP2, 0.35 μM activating peptide, DiFMUP 100 μM; read-out: SHP2 bichemical activity (IC50)
T1 construct: SHP2 (PTPN11/SHP2-FL, RBC produced, no cat #); purchased RBC no cat #
T1 sequence (Q06124 1-593): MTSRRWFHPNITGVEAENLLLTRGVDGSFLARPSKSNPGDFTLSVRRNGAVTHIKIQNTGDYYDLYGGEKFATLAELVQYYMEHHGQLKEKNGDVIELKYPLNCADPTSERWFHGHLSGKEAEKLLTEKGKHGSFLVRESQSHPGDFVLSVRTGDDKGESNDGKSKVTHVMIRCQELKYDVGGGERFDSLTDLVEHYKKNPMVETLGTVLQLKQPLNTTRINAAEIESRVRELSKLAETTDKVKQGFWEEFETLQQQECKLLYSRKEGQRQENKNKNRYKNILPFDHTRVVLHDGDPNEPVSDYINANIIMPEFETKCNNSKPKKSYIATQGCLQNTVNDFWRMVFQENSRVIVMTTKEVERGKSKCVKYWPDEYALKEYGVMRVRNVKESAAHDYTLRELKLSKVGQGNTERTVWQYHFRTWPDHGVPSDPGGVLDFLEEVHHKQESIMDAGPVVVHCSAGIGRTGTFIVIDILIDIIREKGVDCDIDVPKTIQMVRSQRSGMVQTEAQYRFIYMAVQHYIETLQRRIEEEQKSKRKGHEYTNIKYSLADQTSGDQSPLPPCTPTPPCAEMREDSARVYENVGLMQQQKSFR
Method: SHP2 is allosterically activated through binding of bis-tyro syiphorphorylated peptides to its Src Homology 2 (SH2) domains. The latter activation step leads to the release of the auto-inhibitory interface of SHP2, which in turn renders the SHP2 PTP active and available for substrate recognition and reaction catalysis. The catalytic activity of SHP2 was monitored using the surrogate substrate DiFMUP in a prompt fluorescence assay format. Specifically, the phosphatase reactions were performed at room temperature in 384-well black polystyrene plate, flat bottom, low flange, non-binding surface (Corning, Cat #3575) using a final reaction volume of 20 μL and the following assay buffer conditions: 60 mM HEPES, pH 7.2, 75 mM NaCl, 75 mM KCl, 1 mM EDTA, 0.01% Brij-35, 5 mM DTT, and 10% DMSO (final). The inhibition of SHP2 from the tested compounds (final concentrations varying from 0.003-100 μM) was monitored using an assay in which 0.5 nM of SHP2 (PTPN11/SHP2-FL, RBC produced, no cat #) was incubated with 0.35 μM of the peptide H2NLN(pY)IDLDLV(dPEG8)LST(pY)ASINFQK-amide. After 20 minutes of incubation at room temperature, the surrogate substrate DiFMUP (6,8-difluoro-7-hydroxy-4-methylcoumarin, Invitrogen, cat #D6567, 100 μM final concentration) was added to the reaction. The fluorescence signal was monitored using a microplate reader (Envision, Perkin-Elmer) using excitation and emission wavelengths of 355 nm and 460 nm, respectively. The inhibitor dose response curves were analyzed using normalized IC50 regression curve fitting with control based normalization.
The IC50 values of for Compounds disclosed are listed in Table 2, A: ≤10 nM; B: >10 nM and ≤100 nM; C: >100 nM and ≤1 uM; and D: >1 μM.

MiaPaCa-2 cells = assay: MiaPaCa-2 Cell proliferation assay in 3D culture (CCK8); format: cell-based; settings: Homo sapiens, MIA PaCa-2, 120 h; 3D spheroid culture, 5 days with compound, CCK8 readout
Method: MiaPaCa-2 Cell proliferation assay in 3D culture. To evaluate cell viability, MiaPaCa-2 cells in logarithmic growth phase were seeded at optimal density and grown in as spheroids. Cells were incubated for 24 hours prior to the addition of different concentrations of the compounds. Cells were cultured with the compounds for 5 days and the cell viability was assessed using CCK8. Briefly, 2500 cells were seeded in round bottom ultra-low attachment 96 well plates (coming) in growth media supplemented with 10% FBS and incubated at 37° C. for 24 hours. The compounds were dissolved in DMSO (Sigma) to obtain 10 mM stock solution. Then the compounds were serially diluted in 3-fold to ten concentrations; 5 μL of the dilution above was transferred to 95 uL culture media to obtain the 50× compound stock solution; 4 uL of the 50× compound above was then transferred to the wells containing cells with 196 μL of the culture medium to obtain the final 1× concentration. The final concentration of DMSO was 0.1%. Spheroid cells were incubated in compounds for 5 days. Then 20 μL WST-8 solution (DOJINDO, Cell Counting KIT-8) was added to each well. The plates were further incubated at 37° C. for 1.5 hours, and then absorbance at 450 nm was measured using a microplate reader. Each compound was tested in triplicate and the IC50 value was calculated using GraphPad Prism.
The IC50 values of for Compounds disclosed are listed in Table 2, A: ≤500 nM; B: >500 nM and ≤5 μM; C: >5 μM and ≤50 μM; and D: >50 μM.

Row | SMILES | IC50 (SHP2 (PTPN11/SHP2-FL)) [µM] | IC50 (MiaPaCa-2 cells) [µM]
1 | CC1(CN)CCN(c2cnc(Sc3cccc(NC(=O)NS(=O)(=O)c4ccncc4)c3Cl)c(N)n2)CC1 [Example 41, N-((3-((3-amino-5-(4-(aminomethyl)-4-methylpiperidin-1-yl)pyrazin-2-yl)thio)-2-chlorophenyl)carbamoyl)pyridine-4-sulfonamide] | ≤ 0.01 | 5 to 50
2 | CC1(CN)CCN(c2cnc(Sc3cccc(C(=O)NS(=O)(=O)C4CC4)c3Cl)cn2)CC1 [Example 25, 3-((5-(4-(aminomethyl)-4-methylpiperidin-1-yl)pyrazin-2-yl)thio)-2-chloro-N-(cyclopropylsulfonyl)benzamide] | ≤ 0.01 | ≤ 0.5
3 | CC1(N)CCN(c2cnc(Sc3cccc(C(=O)NS(=O)(=O)C4CC4)c3Cl)cn2)CC1 [Example 18, 3-((5-(4-amino-4-methylpiperidin-1-yl)pyrazin-2-yl)thio)-2-chloro-N-(cyclopropylsulfonyl)benzamide] | 0.01 to 0.1 | 5 to 50
4 | CC1(N)CCN(c2cnc(Sc3cccc(NC(=O)NS(=O)(=O)c4ccccc4)c3Cl)c(N)n2)CC1 [Example 4, N-((3-((3-amino-5-(4-amino-4-methylpiperidin-1-yl)pyrazin-2-yl)thio)-2-chlorophenyl)carbamoyl)benzenesulfonamide] | ≤ 0.01 | ≤ 0.5
5 | CC1(N)CCN(c2cnc(Sc3cccc(NC(=O)NS(=O)(=O)c4ccccc4)c3Cl)cn2)CC1 [Example 1, N-((3-((5-(4-amino-4-methylpiperidin-1-yl)pyrazin-2-yl)thio)-2-chlorophenyl)carbamoyl)benzenesulfonamide] | 0.01 to 0.1 | ≤ 0.5
6 | CC1(CN)CCN(c2cnc(Sc3cccc(C(=O)NS(=O)(=O)c4ccncc4)c3Cl)c(N)n2)CC1 [Example 39, 3-((3-amino-5-(4-(aminomethyl)-4-methylpiperidin-1-yl)pyrazin-2-yl)thio)-2-chloro-N-(pyridin-4-ylsulfonyl)benzamide] | 0.01 to 0.1 | 5 to 50
7 | CC1(CN)CCN(c2cnc(Sc3cccc(C(=O)NS(C)(=O)=O)c3Cl)c(N)n2)CC1 [Example 37, 3-((3-amino-5-(4-(aminomethyl)-4-methylpiperidin-1-yl)pyrazin-2-yl)thio)-2-chloro-N-(methylsulfonyl)benzamide] | 0.01 to 0.1 | 5 to 50
8 | CC1(N)CCN(c2cnc(Sc3cccc(S(=O)(=O)NC(=O)c4ccccc4)c3Cl)c(N)n2)CC1 [Example 8, N-((3-((3-amino-5-(4-amino-4-methylpiperidin-1-yl)pyrazin-2-yl)thio)-2-chlorophenyl)sulfonyl)benzamide] | 0.01 to 0.1 | 5 to 50
9 | CC1(N)CCN(c2cnc(Sc3cccc(C(=O)NS(C)(=O)=O)c3Cl)cn2)CC1 [Example 19, 3-((5-(4-amino-4-methylpiperidin-1-yl)pyrazin-2-yl)thio)-2-chloro-N-(methylsulfonyl)benzamide] | 0.01 to 0.1 | 5 to 50
10 | CC1(CN)CCN(c2cnc(Sc3cccc(C(=O)NS(=O)(=O)c4cccnc4)c3Cl)c(N)n2)CC1 [Example 38, 3-((3-amino-5-(4-(aminomethyl)-4-methylpiperidin-1-yl)pyrazin-2-yl)thio)-2-chloro-N-(pyridin-3-ylsulfonyl)benzamide] | ≤ 0.01 | 0.5 to 5
11 | CC1(CN)CCN(c2cnc(Sc3cccc(C(=O)NS(=O)(=O)c4ccncc4)c3Cl)cn2)CC1 [Example 28, 3-((5-(4-(aminomethyl)-4-methylpiperidin-1-yl)pyrazin-2-yl)thio)-2-chloro-N-(pyridin-4-ylsulfonyl)benzamide] | ≤ 0.01 | 0.5 to 5
12 | CC1(CN)CCN(c2cnc(Sc3cccc(NC(=O)NS(=O)(=O)c4ccccc4)c3Cl)cn2)CC1 [Example 2, N-((3-((5-(4-(aminomethyl)-4-methylpiperidin-1-yl)pyrazin-2-yl)thio)-2-chlorophenyl)carbamoyl)benzenesulfonamide] | ≤ 0.01 | ≤ 0.5
13 | CC1(CN)CCN(c2cnc(Sc3cccc(S(=O)(=O)NC(=O)c4ccccc4)c3Cl)cn2)CC1 [Example 7, N-((3-((5-(4-(aminomethyl)-4-methylpiperidin-1-yl)pyrazin-2-yl)thio)-2-chlorophenyl)sulfonyl)benzamide] | 0.01 to 0.1 | 0.5 to 5
14 | CC1(CN)CCN(c2cnc(Sc3cccc(C(=O)NS(=O)(=O)c4ccccn4)c3Cl)cn2)CC1 [Example 22, 3-((5-(4-(aminomethyl)-4-methylpiperidin-1-yl)pyrazin-2-yl)thio)-2-chloro-N-(pyridin-2-ylsulfonyl)benzamide] | ≤ 0.01 | ≤ 0.5
15 | CC1(CN)CCN(c2cnc(Sc3cccc(C(=O)NS(=O)(=O)c4ccccc4F)c3Cl)cn2)CC1 [Example 23, 3-((5-(4-(aminomethyl)-4-methylpiperidin-1-yl)pyrazin-2-yl)thio)-2-chloro-N-((2-fluorophenyl)sulfonyl)benzamide] | ≤ 0.01 | 0.5 to 5
16 | CC1(CN)CCN(c2cnc(Sc3cccc(C(=O)NS(=O)(=O)c4ccccc4)c3Cl)cn2)CC1 [Example 21, 3-((5-(4-(aminomethyl)-4-methylpiperidin-1-yl)pyrazin-2-yl)thio)-2-chloro-N-(phenylsulfonyl)benzamide] | ≤ 0.01 | ≤ 0.5
17 | CC1(CN)CCN(c2cnc(Sc3cccc(NC(=O)NS(=O)(=O)C4CCCC4)c3Cl)c(N)n2)CC1 [Example 42, N-((3-((3-amino-5-(4-(aminomethyl)-4-methylpiperidin-1-yl)pyrazin-2-yl)thio)-2-chlorophenyl)carbamoyl)cyclopentanesulfonamide] | ≤ 0.01 | ≤ 0.5
18 | CC1(CN)CCN(c2cnc(Sc3cccc(C(=O)NS(=O)(=O)C4CCCC4)c3Cl)cn2)CC1 [Example 30, 3-((5-(4-(aminomethyl)-4-methylpiperidin-1-yl)pyrazin-2-yl)thio)-2-chloro-N-(cyclopentylsulfonyl)benzamide] | ≤ 0.01 | 0.5 to 5
19 | C[C@@H]1OCC2(CCN(c3cnc(Sc4cccc(NC(=O)NS(=O)(=O)C5CCCCC5)c4Cl)cn3)CC2)[C@@H]1N [Example 69, N-((3-((5-((3S,4S)-4-amino-3-methyl-2-oxa-8-azaspiro[4.5]decan-8-yl)pyrazin-2-yl)thio)-2-chlorophenyl)carbamoyl)cyclohexanesulfonamide] | – | ≤ 0.5
20 | C[C@@H]1OCC2(CCN(c3cnc(Sc4ccnc(NC(=O)NS(=O)(=O)c5ccc(F)cc5)c4Cl)cn3)CC2)[C@@H]1N [Example 53, N-((4-((5-((3S,4S)-4-amino-3-methyl-2-oxa-8-azaspiro[4.5]decan-8-yl)pyrazin-2-yl)thio)-3-chloropyridin-2-yl)carbamoyl)-4-fluorobenzenesulfonamide] | – | ≤ 0.5
